What was measured:
[1] = system: human microglia; assay: Reduction in C26:0 LPC in human microglia in vitro; type: cell-based; conditions: half maximal reduction in C26:0 LPC
Experimental: Lysophosphatidylcholine (LPC) VLCFA were generated from straight chain VLCFA (SC-VLCFA) and were used clinically for newborn screening (Vogel et al., Mol. Genet. Metab. (2015) 114(4):599-603). In vitro efficacy studies were performed by measuring LPC VLCFA level (measured as LPC synthesis) in various cell lines, specifically in 1) human HEK cells, 2) patient derived cells, and 3) human microglia, which are disease relevant CNS cells. Compound 87's dose response relationships and IC50 values were measured in HEK cells, primary patient fibroblasts, immortalized patient lymphocytes, and a human microglial cell line. […]
Immortalized human microglia (Applied Biological Materials (ABM); catalog #T0251; Richmond BC, Canada) were grown and sub-cultured following the subculturing protocols from ABM except DMEM (high glucose, pyruvate; LifeTech Cat. No. 11995) was used instead of Prigrow III medium and standard tissue culture grade flasks and plates were used. […] An equal volume of media was used to neutralize the detachment media and the cells were collected and counted. […]
Upon the completion of the compound treatment, the media (with compound treatment) was aspirated from the well. […] The plate was sealed with a plate tape and put at −80° C. for further VLCFA extraction and VLCFA quantitation on LC-MS, as described below.
VLCFA Extraction and Quantitation on LCMS: […]

[2] = system: ABCD1 KO mice; assay: Thermal pain sensitivity (Plantar test, Hargreaves apparatus) in ABCD1 KO mice; type: in vivo, mouse; conditions: male ABCD1 KO mice
Experimental: ABCD1 KO mice were used as a functional model of AMN. ABCD1 KO mice display a progressive loss of sensitivity to painful thermal stimulus similar to symptoms observed in AMN patients such as decreased sensitivity to touch. To determine the effect of Compound 87 on thermal sensitivity, Compound 87 was dosed PO QD either prophylactically or therapeutically to determine whether ABCD1 KO mice have different latency thresholds for the Plantar test (Hargreaves apparatus) response compared to wild-type (WT) mice. For the prophylactic study, mice were tested beginning at 10 months of age (before the loss of pain sensitivity) using doses of either 5 or 20 mg/kg. For the therapeutic study, mice were tested beginning at 18 months of age, after there was already a significant loss of pain sensitivity, using doses of either 32 or 64 mg/kg. […] The Plantar test (using a Hargreaves apparatus) was used and measured the latency to respond to a thermal stimulus using the following protocol. An individual mouse was placed into an individual compartment with a glass floor for about 10-15 minutes until they were settled. Each individual mouse was given three trials with an infrared source on each hind paw (alternated hind paws each time, and waited 5 minutes between each trial). […] When a response was observed (paw withdrawal), the key/button was released and the latency to respond was recorded (in seconds).

[3] = Metabolic intrinsic clearance in human hepatocytes; type: in vitro ADME; conditions: cryopreserved hepatocytes in suspension, pH 7.5, 0.5 million cells/mL, incubation for 4 hours
Experimental: The metabolic intrinsic clearance (CLint) of Compound 87 was determined in human, monkey, dog, rat, and mouse hepatocytes. Cryopreserved human hepatocytes (Lot Hue50c), monkey hepatocytes (cynomolgus; Lot Cy328), dog hepatocytes (beagle, Lot Db235), rat hepatocytes (Sprague Dawley; NNH), and mouse hepatocytes (CD-1; Lot Mc522) were obtained from ThermoFisher (Paisley, UK). In separate experiments, compound 87 (1 μM) was incubated with hepatocytes from each species (0.5 million cells/mL, suspension) in Dulbecco's Modified Eagle's Medium (DMEM) supplemented with 4-(2-Hydroxyethyl)piperazine-1-ethanesulfonic acid (HEPES, 9 mM) and fructose (2.2 mM) (pH 7.5). Samples were quenched with acetonitrile and analyzed by LC-MS/MS. The mean CLint for Compound 87 in human, monkey, dog, rat, and mouse hepatocytes after incubation for 4 hours was determined to be ≤2.5, ≤2.5, 7.2, 23.6 and 10.7 μL/min/million cells. Based on these date, Compound 87 was low to moderately metabolized in hepatocytes in mouse, rat, dog, monkey, and human, and the rank order of stability at […] was approximately human>monkey>dog>mouse>rat. […] The metabolic stability of Compound 87 was not expected.

IC50 [1]: 0.011 µM
hepatocyte CLint at 1 μM [3]: ≤ 2.5 µL/min/1e6 cells
SMILES: O=C(Nc1ccn(-c2ccnc(F)c2)n1)C1(c2ccccc2F)CC1 [Compound 87, 1-(2-fluorophenyl)-N-[1-(2-fluoro-4-pyridyl)pyrazol-3-yl]cyclopropanecarboxamide]
thermal pain sensitivity (response latency, Plantar test), prophylactic treatment ([2]; 5 or 20 mg/kg PO QD, dosing initiated at 10 months of age, 6 month period): reduced the loss of thermal pain sensitivity
thermal pain sensitivity (response latency, Plantar test), therapeutic treatment ([2]; 32 or 64 mg/kg PO QD, dosing initiated at 18 months of age): reversed the loss of thermal pain sensitivity

From patent publication US20180251431A1 (VERTEX PHARMACEUTICALS INCORPORATED, priority 2016, published 2018)
